Experimental findings from US12616711B2, “Therapeutic dendrimer” (Starpharma Pty Ltd, priority 2019, dated 2026) are described below.

The subject of one experiment is A549 tumour xenografts. Nature of the experiment: A549 lung adenocarcinoma mouse xenograft (Example 15). In kind it is in vivo. Conditions: 3 at 6 mg/kg weekly, Gemcitabine 120 mg/kg twice weekly, 3 weeks i.v. Here is the method: A A549 (human adenocarcinomic human alveolar basal epithelial) cell line was used to assess the anti-tumour efficacy properties of 3. NSG mice were inoculated and tumours sized as described above. On day 30 after implantation, mice with similar sized tumours (mean tumour volume 100 mm^3) were randomised into four groups of 10 animals for each tumour type. Gemcitabine and 3 were prepared as described above.
Gemcitabine was administered twice weekly and dendrimer was administered weekly for 3 weeks via tail vein i.v. injection, at 0.1 ml/10 g body weight.

For experiment [1], the system named is CAPAN-1 tumour xenografts. The experiment is described as follows: CAPAN-1 mouse xenograft, two conjugates (Example 14). The experiment is classed as in vivo. As to conditions: 3 at 6 mg/kg weekly, 6 at 5 mg/kg weekly, Gemcitabine 120 mg/kg twice weekly, 3 weeks i.v. How it is done:
A CAPAN-1 (human pancreatic adenocarcinoma cell line) mouse xenograft pancreatic cancer model was used to assess the anti-tumour efficacy properties of 3 and 6. NSG (NOD-SCID Interleukin-2 receptor gamma chain null) mice were inoculated and tumours sized as described above. On day 24 after implantation, mice with similar sized tumours (mean tumour volume 100 mm^3) were randomised into four groups of 10 animals for each tumour type. Gemcitabine, 3 and 6 were prepared as described above.
Gemcitabine was administered twice weekly and dendrimers were administered weekly for 3 weeks via tail vein i.v. injection, at 0.1 ml/10 g body weight.

As for “[BHA Lys][Lys]30[Lys]32 [Compound 3, [BHA Lys][Lys]30[Lys]32 [(α-NH-TDA-Gemcitabine)32 (ε-NHPEG˜2100)32]]”, the “anti-tumour efficacy compared to Gemcitabine (FIG. 8)” value in the experiment with A549 tumour xenografts is listed as “more effective than Gemcitabine”. Moreover, the “anti-tumour efficacy compared to other groups (FIG. 7)” value in experiment [1] is “significantly more effective than Gemcitabine or 6”.
